From patent US7485665B2, “Medicinal composition” (Nagase Chemtex Corporation, priority 2002, dated 2009)
Where a name gives a salt, the structure may show the parent alone.

Legend:
dopamine D2 receptor = molecular target: T1, dopamine D2 receptor (Rattus norvegicus, UniProt P61169); test: Binding affinity for dopamine D2 receptor ([3H]-spiperone displacement); conditions: for IC50: Wistar rat corpus striatum receptor sample, 0.25 nM [3H]-spiperone
T1 construct: centrifugation and suspension were repeated to prepare a dopamine D2 receptor sample; from tissue; host or cells: corpus striatum of Wistar male rat (membrane homogenate)
Protocol: Corpus striatum extracted from a Wistar male rat was homogenized in a 50 mM Tris-HCl buffer (pH 7.7), and centrifugation and suspension were repeated to prepare a dopamine D2 receptor sample. The receptor sample was reacted with a solution containing a 0.25 nM radioactive ligand of [^3H]-spiperone and the specimen drug obtained in Example 9 at a prescribed concentration. Then, the solution was filtered by suction using a multifilter MF-12G (glass filter (provided with Whatman GF/C)), and radioactivity of the filter was measured using a scintillation counter (LS6500 Beckman), so that affinity of the specimen drug for a dopamine D2 receptor was measured. Separately, the same procedure was also performed regarding TKS159 hydrochloride, and the affinity was compared.

beagle dogs [1] = test: 4-week repeated oral administration to beagle dogs, necropsy and pathohistological test; format: in vivo; conditions: beagle dog, oral 100 mg/kg once a day for 4 weeks
Protocol: Using three beagle dogs as a test animal, 4-amino-5-chloro-2-methoxy-N-[(2S,4S)-2-hydroxymethyl-4-pyrrolidinyl]benzamide monohydrochloride obtained in Example 9 was repeatedly administered orally at a dose of 100 mg/kg once a day for 4 weeks. Thereafter, the animals were sacrificed by exsanguination from carotid artery under anesthesia, and the brain, aorta, heart, lung, and liver were extracted. These organs were examined with naked eyes, fixed with a 0.1% phosphate-buffered 10% formalin solution, and stored. Each organ was embedded in paraffin, and sliced to prepare a hematoxine orange-stained sample. Pathohistological test on the sections was performed using a light microscope.

Sprague-Dawley male rats = test: 28-day repeated oral administration to rats, necropsy and pathohistological test; format: in vivo; conditions: rat, oral 300, 1000 or 2000 mg/kg once a day for 28 days
Protocol: Five Sprague-Dawley male rats, 4 week age, weighing each 160.3 to 169.5 g, were reared for 8 days for quarantine and training were handled as one group, and they were grouped into four groups of a control group, a 300 mg/kg administration, a 1000 mg/kg administration, and a 2000 mg/kg administration. 4-Amino-5-chloro-2-methoxy-N-[(2S,4S)-2-hydroxymethyl-4-pyrrolidinyl] benzamide monohydrochloride obtained in Example 9 was ground with a mortar, the powder was added so that the compound was contained at 300 mg, 1000 mg or 2000 mg in 10 ml of a 0.5% aqueous methylcellulose solution (manufactured by Wako Pure Chemical Industries, Ltd.; prepared using Japanese Pharmacopoeia injectable water), and the solution was stirred to prepare an administration specimen. Administration specimens for 7 days were prepared at one time, once per week, stored in a refrigerator, and used. One-time dose was defined to be 10 ml/kg, and the specimen was forcibly administered orally at 9 o'clock to 12 o'clock for 28 days once a day using a rat stomach tube. Only a 0.5% aqueous methylcellulose solution was administered at 10 ml/kg to a control group.
During training and drug administration period, a solid feed (CE-2 manufactured by CLEA Japan Inc.) and tap water were freely given.

[2] = system: esophagus sample extracted from a rat; test: Relaxation reaction in rat-extracted esophagus muscularis mucosae sample contracted with carbachol; conditions: for EC50: Wistar rat esophagus muscularis mucosae, 3x10^-6 M carbachol, 1 μM methysergide, ketanserin and granisetron present
Protocol: Regarding the drug obtained in Example 9, a degree of action of promoting the movement of the digestive tract was measured using an esophagus sample extracted from a rat.
An esophagus in a chest cavity was extracted from a Wistar male rat, and muscularis propria sample containing longitudinal muscle and circular muscle was removed to prepare a muscularis mucosae sample having a length of about 2 cm. The sample was immersed in a nutrient solution (containing NaCl 118.5, KCl 4.7, CaCl2 1.3, MgSO4 0.6, NaHCO3 25.0, KH2PO4 1.2, and glucose 11.1 (unit mM)), and constriction of the sample and stability of the constriction were confirmed at 32°C using 3x10 ^-6M carbachol while a 95% 02/5% Co2 mixed gas was flown, each 1 μM of methysergide, ketanserin and granisetron were added, the drug obtained in Example 9 was accumulatively applied at a common ratio of 3 after 30 minutes, and a degree of relaxation was isotonically (stationary tension; about 0.5 g) measured via a transducer. Separately, the same procedure was also performed regarding TKS159 hydrochloride, and an intensity of the action was compared.

serotonin receptor 4 = molecular target: T2, serotonin receptor 4 (Cavia porcellus, UniProt O70528); test: Binding affinity for serotonin receptor 4 ([3H]-GR113808 displacement); parameters: species or system guinea pig; conditions: for IC50: guinea pig corpus striatum receptor sample, 0.1 nM [3H]-GR113808
T2 construct: centrifugation and suspension were repeated to prepare a serotonin receptor 4 sample; from tissue; host or cells: corpus striatum of Hartley male guinea pig (membrane homogenate)
Protocol: Corpus striatum extracted from a Hartley male guinea pig was homogenized in a 50 mM HEPES-NaOH buffer (pH 7.4), and centrifugation and suspension were repeated to prepare a serotonin receptor 4 sample. The receptor sample was reacted with a solution containing a 0.1 nM radioactive ligand of [^3H]-GR113808 and the specimen drug obtained in Example 9 at a prescribed concentration. Then, the solution was filtered by suction using a multifilter MF-12G (glass filter (provided with Whatman GFIC)), and radioactivity of the filter was measured using a scintillation counter (LS6500 Beckman), so that affinity of the specimen drug for a serotonin receptor 4 was measured. Separately, the same procedure was also performed regarding TKS159 hydrochloride, and the affinity was compared.

ddy male mouse = test: Acute toxicity in mouse, oral and intravenous administration; format: in vivo
Protocol: Using a ddy male mouse, the drug obtained in Example 9 and TKS159 were suspended in 0.5% methylcellulose for oral administration, and were dissolved in a physiological saline for intravenous administration. This was administered by a forced oral administration method and an intravenous administration method using a probe, and acute toxicity was observed.

beagle dogs [3] = test: Repeated oral administration toxicity tests of TKS159 in beagle dogs (4, 13 and 52 weeks); format: in vivo
Protocol: Separately, beagle dogs (female and male) were divided into 4 groups consisting of 6, 4, 4 and 6 dogs and, among them, to 3 groups were repeatedly administered orally TKS 159 at a dose of 2.5, 6.0 and 15.0 mg/kg, and to a control group was repeatedly administered orally an excipient, for 13 weeks, and observation of the general status and various tests were performed. Further, regarding a control group and a case of a part of a 15.0 mg/kg administration group, after a repeated administration period for 13 weeks, a recovery test of no administration of a drug was performed for 4 weeks, and then the same test was performed. […] Separately, beagle dogs (female and male) were divided into 4 groups containing 5, 3, 3 and 5 dogs and, among them, to 3 groups was repeatedly administered orally TKS159 at a dose of 0.25, 0.75 and 2.25 mg/kg, to a control group was repeatedly administered an excipient orally, for 52 weeks, and observation of the general status and various tests were performed. Further, regarding a control group and a case of a part of a 2.25 mg/kg administration group, after a repeated administration period for 52 weeks, a recovery test of no administration of a drug was performed for 4 weeks, and then the same test was performed.

[4] = beagle dogs, 13 weeks, 15.0 mg/kg group
[5] = beagle dogs, 52 weeks, 2.25 mg/kg group
[6] = male beagle dogs, 4 weeks, 100 mg/kg group

T1 sequence (P61169 whole entry): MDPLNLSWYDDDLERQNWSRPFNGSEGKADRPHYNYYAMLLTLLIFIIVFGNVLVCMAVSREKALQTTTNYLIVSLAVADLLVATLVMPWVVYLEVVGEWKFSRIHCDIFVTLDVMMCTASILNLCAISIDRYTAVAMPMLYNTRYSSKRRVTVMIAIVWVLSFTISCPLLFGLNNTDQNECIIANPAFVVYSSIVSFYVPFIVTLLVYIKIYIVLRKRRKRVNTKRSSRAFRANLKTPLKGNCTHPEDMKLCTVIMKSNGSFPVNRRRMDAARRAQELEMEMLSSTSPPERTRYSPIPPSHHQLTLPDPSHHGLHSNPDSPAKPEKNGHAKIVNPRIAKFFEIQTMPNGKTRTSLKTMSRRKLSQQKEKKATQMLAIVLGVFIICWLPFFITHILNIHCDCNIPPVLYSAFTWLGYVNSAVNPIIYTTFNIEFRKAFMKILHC
T2 sequence (O70528 whole entry): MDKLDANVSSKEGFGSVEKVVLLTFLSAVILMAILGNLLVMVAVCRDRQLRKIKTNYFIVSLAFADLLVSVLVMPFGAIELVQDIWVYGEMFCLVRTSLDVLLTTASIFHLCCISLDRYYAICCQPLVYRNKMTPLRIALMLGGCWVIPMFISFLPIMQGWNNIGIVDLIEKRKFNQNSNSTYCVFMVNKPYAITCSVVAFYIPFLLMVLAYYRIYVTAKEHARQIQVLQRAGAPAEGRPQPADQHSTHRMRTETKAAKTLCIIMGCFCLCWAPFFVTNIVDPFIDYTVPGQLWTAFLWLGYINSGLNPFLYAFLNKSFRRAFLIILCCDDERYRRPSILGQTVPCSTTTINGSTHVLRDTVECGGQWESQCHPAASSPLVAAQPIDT

affinity for a dopamine D2 receptor as compared with TKS159 hydrochloride (dopamine D2 receptor; FIG. 2)	affinity for a serotonin receptor 4 as compared with TK5159 hydrochloride (serotonin receptor 4; FIG. 1)	SMILES	IC50 (dopamine D2 receptor)	pathohistological test (beagle dogs [1])	organs examined with naked eyes (beagle dogs [1]; brain, aorta, heart, lung, liver)	organs observed with naked eyes (Sprague-Dawley male rats)	pathohistological test (Sprague-Dawley male rats)	relaxing action as compared with TKS159 hydrochloride ([2]; FIG. 3)	EC50 [2]	IC50 (serotonin receptor 4)	Survival (ddy male mouse; intravenous administration, 132 mg/kg)	Survival (ddy male mouse; oral administration, 1080 mg/kg)	findings in other one case (beagle dogs [3]; [4])	findings in two cases (beagle dogs [3]; [4])	arteritis findings (beagle dogs [3]; [5])	malacia findings (beagle dogs [3]; [5])	findings in death case (beagle dogs [3]; [6])	findings in survival case (beagle dogs [3]; [6])
weaker	stronger	COc1cc(N)c(Cl)cc1C(=O)N[C@@H]1CN[C@H](CO)C1.Cl [Example 9, 4-amino-5-chloro-2-methoxy-N-[(2S,4S)-2-hydroxymethyl-4-pyrrolidinyl]benzamide monohydrochloride]	34 µM	encephalomalacia, arteritis and thrombus formation were not recognized	Abnormality was not seen in any organ	Abnormality was not seen with naked eyes in any organ	encephalomalacia, arteritis and thrombus formation were not recognized	stronger	0.7 µM	0.25 µM								
		CCN1CC(NC(=O)c2cc(Cl)c(N)cc2OC)CC1CO (stereo not drawn) [TKS159 hydrochloride]	3.8 µM						1.1 µM	0.45 µM	No survival among 6	No survival among 2						
		CCN1C[C@@H](NC(=O)c2cc(Cl)c(N)cc2OC)C[C@H]1CO [TKS159, 4-Amino-5-chloro-2-methoxy-N-[(2S,4S)-1-ethyl-2-hydroxymethyl-4-pyrrolidinyl]benzamide]											necrosis of an artery septum and surrounding cell infiltration were recognized	arteritis was recognized	arteritis was observed in thighbone marrow and mediastinal lymph node in one case among male 5 cases	malacia was seen in piriform lobe and hippocampus in other one case	thrombus formation was recognized in a lung artery and a heart coronary artery, and slight bleeding was recognized in a cavity surrounding a blood vessel in a cerebral parenchyma	big thrombus formation was recognized in a left ventricle, and thrombus formation was recognized in a kidney arcuate artery and an interlobar artery
